Where a name gives a salt, the structure may show the parent alone. Numbered stars: 1 amine (or outer) side, 2 acyl side, 3 side chain; on linkers, the order of the positions; unused ones are H or OH. Bridge positions count the residues as written; N and C are the ends. Peptide text beside a SMILES is read from it. I, II: the chains in the order shown. Rhodamine110 = O=C1OC2(c3ccc(N[*:1])cc3Oc3cc(N[*:2])ccc32)c2ccccc21
Key:
Assay type in all cases: cell-based, human
[1] = test system: lymphocytes; experiment: aberrant enzyme activities in febrile children, lymphocytes (Table 7)
[2] = test system: granulocytes; experiment: aberrant enzyme activities in febrile children, granulocytes (Table 7)
[3] = test system: monocytes; experiment: aberrant enzyme activities in febrile children, monocytes (Table 7)

SMILES	aberrant enzyme activity, LYMPHS ([1]; P92 Adenitis)	aberrant enzyme activity, LYMPHS ([1]; P97 Pyelonephritis)	aberrant enzyme activity, LYMPHS ([1]; P103 Viral Syndrome)	aberrant enzyme activity, GRANS ([2]; P102 UTI)	aberrant enzyme activity, MONOS ([3]; P97 Pyelonephritis)	aberrant enzyme activity, LYMPHS ([1]; P102 UTI)	aberrant enzyme activity, GRANS ([2]; P92 Adenitis)	aberrant enzyme activity, GRANS ([2]; P103 Viral Syndrome)	aberrant enzyme activity, MONOS ([3]; P92 Adenitis)	aberrant enzyme activity, MONOS ([3]; P103 Viral Syndrome)	aberrant enzyme activity, GRANS ([2]; P88 Enteritis)	aberrant enzyme activity, GRANS ([2]; P89 Viral Stomatitis)	aberrant enzyme activity, MONOS ([3]; P89 Viral Stomatitis)	aberrant enzyme activity, LYMPHS ([1]; P88 Enteritis)	aberrant enzyme activity, LYMPHS ([1]; P89 Viral Stomatitis)	further results
C[C@H](N)C(=O)N[C@@H](C)C(=O)Nc1ccc2c(c1)Oc1cc(NC(=O)[C@H](C)NC(=O)[C@H](C)N)ccc1C21OC(=O)c2ccccc21 [AA-TFA, (H-L-Ala--Ala)2 Rho 110 .2TFA]	.smallcircle.	.smallcircle.	.smallcircle.	–	–	–	–	–	–	–	–	–	–	–	–	–
N=C(N)NCCC[C@H](N)C(=O)Nc1ccc2c(c1)Oc1cc(NC(=O)[C@@H](N)CCCNC(=N)N)ccc1C21OC(=O)c2ccccc21 (stereo partly drawn) [ARG, (H-L-Arg)2 Rho 110 .4TFA]	.smallcircle.	–	.smallcircle.	.smallcircle.	.smallcircle.	.smallcircle.	–	–	–	–	–	–	–	–	–	aberrant enzyme activity, GRANS ([2]; P95 Viral Syndrome): .smallcircle.; aberrant enzyme activity, GRANS ([2]; P96 Viral Syndrome): .smallcircle.; aberrant enzyme activity, MONOS ([3]; P95 Viral Syndrome): .smallcircle.; aberrant enzyme activity, MONOS ([3]; P96 Viral Syndrome): .smallcircle.; aberrant enzyme activity, MONOS ([3]; P99 Viral Syndrome): .smallcircle.; aberrant enzyme activity, MONOS ([3]; P102 UTI): .smallcircle.; aberrant enzyme activity, LYMPHS ([1]; P95 Viral Syndrome): .smallcircle.; aberrant enzyme activity, LYMPHS ([1]; P97 Pyelonephritis, listed as Arg-TFA): .smallcircle.; aberrant enzyme activity, LYMPHS ([1]; P99 Viral Syndrome): .smallcircle.
N[C@@H](CC(=O)O)C(=O)Nc1ccc2c(c1)Oc1cc(NC(=O)[C@@H](N)CC(=O)O)ccc1C21OC(=O)c2ccccc21 [ASP, (H-L-Asp)2 --Rho 110 .2TFA]	.smallcircle.	.smallcircle.	.smallcircle.	–	.smallcircle.	–	.smallcircle.	.smallcircle.	.smallcircle.	.smallcircle.	–	–	–	–	–	aberrant enzyme activity, GRANS ([2]; P97 Pyelonephritis): .smallcircle.
O=C1OC2(c3ccc(OC4O[C@H](CO)[C@@H](O)[C@H](O)[C@H]4O)cc3Oc3cc(OC4O[C@H](CO)[C@@H](O)[C@H](O)[C@H]4O)ccc32)c2ccccc21 (stereo partly drawn) [DGLUC, (D-glucose)2 fluorescein]	.smallcircle.	–	- (>0.25 Decrease over normal range)	–	–	–	+ (>0.25 Increase over normal range)	+ (>0.25 Increase over normal range)	- (>0.25 Decrease over normal range)	+ (>0.25 Increase over normal range)	.smallcircle.	+ (>0.25 Increase over normal range)	.smallcircle.	.smallcircle.	.smallcircle.	aberrant enzyme activity, MONOS ([3]; P88 Enteritis): - (>0.25 Decrease over normal range)
CC(C)C[C@H](NC(=O)[C@@H]1CCCN1C(=O)CN)C(=O)NCC(=O)N1CCC[C@H]1C(=O)Nc1ccc2c(c1)Oc1cc(NC(=O)[C@@H]3CCCN3C(=O)CNC(=O)[C@H](CC(C)C)NC(=O)[C@@H]3CCCN3C(=O)CN)ccc1C21OC(=O)c2ccccc21 [GPLGP, (H-Gly--Pro--Leu--Gly--Pro)2 Rho 110 .2TFA] (I: H-GPLGP / II: H-GPLGP; linker I:C-II:C via Rhodamine110)	–	–	–	.smallcircle.	–	.smallcircle.	–	–	–	–	.smallcircle.	.smallcircle.	.smallcircle.	.smallcircle.	.smallcircle.	–

Reference: patent publication US5698411A, “Method for determining activity of enzymes in metabolically active whole cells” (priority 1995, dated 1997)
